Data reported in patent US8987193B2, “Nisin derivatives and the use thereof” (University College Cork—National University of Ireland, Cork, priority 2008, dated 2015).
Ends that are not written are not given here.

Experiments:
[1] = tested on: Staph. aureus DPC5245; experiment: Deferred antagonism assay; format: cell-based; settings: producing strain; diameter of zone minus 5 mm; average of duplicates; St. aureus DPC5245
Description: (§1) Deferred antagonism assays were performed by replicating strains on GM17 or GM17 x-gal agar plates and allowing them to grow overnight before overlaying with either GM17/BHI/TS/MH agar (0.75% w/v agar) seeded with the appropriate indicator strain. Zone size was calculated as the diameter of the zone of clearing minus the diameter of bacterial growth (5 mm) For higher throughput screening of N20PXX, XM21VX, XXK22T and XXX banks deferred antagonism assays were performed by replicating strains using a 96 pin replicator (Boekel) or spotting 5 μl of a fresh overnight culture on GM17 agar plates and allowing them to grow overnight. […] Additional sets of indicators were employed to further assess/reassess the bioactivity of a number of strains. […] For well-diffusion assays molten agar was cooled to 48° C. and seeded with the appropriate indicator strain. The inoculated medium was rapidly transferred into sterile Petri plates in 50 ml volumes, allowed to solidify and dried. Wells (4.6 mm in diameter) were then made in the seeded plates. Purified nisin and mutant nisins were resuspended in 0.005% acetic acid, serially diluted, 50 μl volumes were dispensed into the aforementioned wells and the plates incubated at 37° C. overnight. Bioactivity was expressed as arbitrary units/ml (AU/ml) and calculated as the reciprocal of the highest dilution that gave a definite zone multiplied by the conversion factor (i.e. 20 when 50 μl was used) (Ryan et al., 1996).
(§2) As a consequence of the enhanced activities of K22T and K22S, a more in-depth investigation of this region was carried out. Saturation mutagenesis was undertaken to create a bank of nisin A hinge derivatives containing the vast majority of possible amino acid substitutions for each position. Although pPTPL was used successfully for random mutagenesis, its relatively large size of approx 10.5 kb was considered unsuitable for the complete plasmid PCR amplification approach utilized for saturation mutagenesis. A smaller (approx 6 kb) E. coli-L. lactis shuttle vector pCI372 was considered to be potentially more useful. Its suitability with respect to the in trans expression of nisA was confirmed by the ability of pDFO5 to restore the nisin positive phenotype. Saturation mutagenesis was performed on each codon using pDF05 and oligonucleotides (Table 5) that replace the specific codon with a NNK triplet, potentially encoding all 20 standard amino acids. Following complete plasmid amplification and introduction into the intermediate Top10 host, sequence analysis of a pooled bank of pDF05 derivatives confirmed randomization. Introduction of these variants into L. lactis NZ9800 allowed the expression of mutant nisin A peptides for further analysis. […] 46 residue conversions were isolated. All strains, regardless of bioactivity, were assessed with a view to comprehensively assessing the consequences of each individual hinge alteration.
(§3) Values are an average of duplicate experiments and represent zone size (diameter of zone minus diameter of bacterial growth (i.e. 5 mm) relative to that of the NZ9800 pCI372nisA control. X=Mutants not identified.

[2] = tested on: Staph. aureus ST528 (MRSA); experiment: Deferred antagonism assay; format: cell-based; settings: producing strain, diameter of zone minus diameter of bacterial growth (5 mm), average of duplicates
Description: as §1, §2, §3

[3] = tested on: Strep. agalactiae ATCC13813; experiment: Deferred antagonism assay; format: cell-based; settings: producing strain, diameter of zone minus 5 mm, average of duplicates
Description: as §1, §2, §3

[4] = tested on: L. monocytogenes CBC1; experiment: Deferred antagonism assay; format: cell-based, Listeria monocytogenes; set-up: key: + = Enhanced bioactivity relative to control; − = Bioactivity equal to or less than control; NA = no activity evident; settings: producing strain; L. mono CBC1
How it was run: (§4)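 Producer strains replicated on GM17 or GM17 x-gal agar, grown overnight, then overlaid with 0.75% agar seeded with indicator strain. Zone size = diameter of clearing minus 5 mm growth diameter. Purified nisins tested by well diffusion at 37° C overnight; activity in AU/ml from reciprocal of highest active dilution × 20.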

[5] = tested on: L. monocytogenes CBC2; experiment: Deferred antagonism assay; format: cell-based, Listeria monocytogenes; set-up: key: + = Enhanced bioactivity relative to control; − = Bioactivity equal to or less than control; NA = no activity evident; settings: producing strain; L. mono CBC2
How it was run: as §4

[6] = tested on: L. monocytogenes CBC3; experiment: Deferred antagonism assay; format: cell-based, Listeria monocytogenes; set-up: key: + = Enhanced bioactivity relative to control; − = Bioactivity equal to or less than control; NA = no activity evident; settings: producing strain; L. mono CBC3
How it was run: as §4

[7] = tested on: L. lactis CBC7; experiment: Deferred antagonism assay; format: cell-based; set-up: key: + = Enhanced bioactivity relative to control; − = Bioactivity equal to or less than control; NA = no activity evident; settings: producing strain
How it was run: as §4

[8] = tested on: L. lactis CBC8; experiment: Deferred antagonism assay; format: cell-based; set-up: key: + = Enhanced bioactivity relative to control; − = Bioactivity equal to or less than control; NA = no activity evident; settings: producing strain
How it was run: as §4

[9] = tested on: S. aureus CBC4; experiment: Deferred antagonism assay; format: cell-based; set-up: key: + = Enhanced bioactivity relative to control; − = Bioactivity equal to or less than control; NA = no activity evident; settings: producing strain
How it was run: as §4

[10] = tested on: C. sporogenes CBC5; experiment: Deferred antagonism assay; format: cell-based, Clostridium sporogenes; set-up: key: + = Enhanced bioactivity relative to control; − = Bioactivity equal to or less than control; NA = no activity evident; settings: producing strain
[11] = tested on: L. plantarum CBC6; experiment: Deferred antagonism assay; format: cell-based, Lactobacillus plantarum; set-up: key: + = Enhanced bioactivity relative to control; − = Bioactivity equal to or less than control; NA = no activity evident; settings: producing strain
How it was run: as §4

[12] = tested on: indicator strains; experiment: Deferred antagonism assays, various indicator strains (summary); format: cell-based; settings: in general / against the strains tested
How it was run: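 Producer strains were replicated on GM17 or GM17 x-gal agar, grown overnight, then overlaid with GM17, BHI, TS or MH soft agar (0.75% w/v) seeded with the indicator strain. Zone size was taken as the clearing diameter minus the diameter of bacterial growth (5 mm).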

Substance | zone size relative to that of the NZ9800 pCI372nisA control [1] | zone size relative to that of the NZ9800 pCI372nisA control [2] | zone size relative to that of the NZ9800 pCI372nisA control [3] | Bioactivity relative to control [4] | Bioactivity relative to control [5] | Bioactivity relative to control [6] | Bioactivity relative to control [7] | Bioactivity relative to control [8] | Bioactivity relative to control [9] | Bioactivity relative to control [10] | Bioactivity relative to control [11] | bioactivity of the producing strain, in words [12]
K22D: nisin A derivative, hinge substitution K22D; peptide not detected by CMS (ITSISLCTPGCKTGALMGCNMDTATCHCSIHVSK; cysteine pairing not given here; also: lantibiotic nisin-A; UniProt P13068 24-57, looked up, variant K22D) | 0% | 0% | 0% | − | − | − | − | − | − | − | − | devoid of bioactivity
M21E: nisin A derivative, hinge substitution M21E (ITSISLCTPGCKTGALMGCNEKTATCHCSIHVSK; cysteine pairing not given here; also: lantibiotic nisin-A; UniProt P13068 24-57, looked up, variant M21E) | 0% | 0% | 0% | − | − | − | − | − | − | − | − | loss of bioactivity
M21P: nisin A derivative, hinge substitution M21P (ITSISLCTPGCKTGALMGCNPKTATCHCSIHVSK; cysteine pairing not given here; also: lantibiotic nisin-A; UniProt P13068 24-57, looked up, variant M21P) | 32% | 40% | 0% | − | − | − | − | − | − | − | − | 
M21W: nisin A derivative, hinge substitution M21W (ITSISLCTPGCKTGALMGCNWKTATCHCSIHVSK; cysteine pairing not given here; also: lantibiotic nisin-A; UniProt P13068 24-57, looked up, variant M21W) | 14% | 12% | 0% | − | − | − | − | − | − | − | − | 
N20L: nisin A derivative, hinge substitution N20L (ITSISLCTPGCKTGALMGCLMKTATCHCSIHVSK; cysteine pairing not given here; also: lantibiotic nisin-A; UniProt P13068 24-57, looked up, variant N20L) | 69.5% | 43% | 69% | − | − | − | − | − | − | − | − | retention of relatively high levels of bioactivity
N20V: nisin A derivative, hinge substitution N20V (ITSISLCTPGCKTGALMGCVMKTATCHCSIHVSK; cysteine pairing not given here; also: lantibiotic nisin-A; UniProt P13068 24-57, looked up, variant N20V) | 77% | 68% | 63% | − | − | − | − | − | − | − | − | reduced bioactivity levels
